Reference: paper PMC6271228, “Diethyl 2-(Phenylcarbamoyl)phenyl Phosphorothioates: Synthesis, Antimycobacterial Activity and Cholinesterase Inhibition” (Molecules, 2014)
Converted amounts (≈) assume the structure as drawn. Like-named read-outs stand apart in the source and are kept apart here.

Key:
[1] = system: M. kansasii My 235/80; experiment: microbe, parasite or virus in culture; format: cell-based, Mycobacterium kansasii; details: for MIC: Mycobacterium kansasii, 37 °C; for MICs for M. kansasii 235/80: all time points
[2] = system: M. kansasii 6509/96 (clinically isolated); experiment: microbe, parasite or virus in culture; format: cell-based; details: Mycobacterium kansasii, 37 °C
[3] = molecular target: T1, AChE from electric eel (Electrophorus electricus, UniProt O42275); experiment: AChE inhibition, modified Ellman's method; format: biochemical, Electrophorus electricus L.
T1 construct: Acetylcholinesterase was obtained from electric eel (Electrophorus electricus L.); from tissue; host or cells: electric eel (Electrophorus electricus L.)
T1 sequence (O42275 24-633): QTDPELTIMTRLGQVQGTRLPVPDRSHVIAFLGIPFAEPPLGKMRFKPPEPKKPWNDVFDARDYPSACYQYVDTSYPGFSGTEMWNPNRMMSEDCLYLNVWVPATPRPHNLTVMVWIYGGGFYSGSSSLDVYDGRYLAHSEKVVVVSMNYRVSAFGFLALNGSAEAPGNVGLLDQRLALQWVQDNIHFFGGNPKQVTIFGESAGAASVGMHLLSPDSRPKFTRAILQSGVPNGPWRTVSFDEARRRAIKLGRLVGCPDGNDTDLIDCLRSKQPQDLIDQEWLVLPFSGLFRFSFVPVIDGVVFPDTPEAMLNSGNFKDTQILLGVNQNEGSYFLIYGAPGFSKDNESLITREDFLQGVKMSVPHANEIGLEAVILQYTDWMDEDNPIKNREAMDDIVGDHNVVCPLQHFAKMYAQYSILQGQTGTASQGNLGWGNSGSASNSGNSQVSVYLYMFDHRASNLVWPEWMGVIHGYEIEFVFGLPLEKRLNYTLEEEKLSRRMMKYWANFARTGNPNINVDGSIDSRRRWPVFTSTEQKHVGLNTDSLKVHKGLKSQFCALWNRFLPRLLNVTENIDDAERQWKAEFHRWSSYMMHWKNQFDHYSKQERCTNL
Source text: (§1) The ability of the tested compounds to inhibit AChE from electric eel (Electrophorus electricus L.) and BChE from equine serum was screened in vitro using modified Ellman’s method for the evaluation of cholinesterase activity. […] […]. These two standards were chosen due to their different structures. […]. The choice of these drugs with different mechanism of action can provide relevant results. All tested compounds expressed a good inhibitory activity with IC50s in low micromolar values.
(§2) The IC50 values were determined using the spectrophotometric Ellman’s method, which is a simple, rapid and direct method to determine the SH and -S-S- group content in proteins. This method is widely used for cholinesterase activity evaluation and screening of the efficiency of cholinesterase inhibitors. Cholinesterase activity is measured indirectly by quantifying the concentration of 5-thio-2-nitrobenzoic acid (TNB) ion formed in the reaction between the thiol reagent 5,5'-dithiobis-2-nitrobenzoic acid (DTNB) and thiocholine, a product of substrate hydrolysis by cholinesterase (i.e., acetylthiocholine, ATCh). All the tested compounds were dissolved in dimethyl sulfoxide (concentration 0.01 M) and then diluted in demineralised water (concentration 0.001 M and 0.0001 M). The Ellman’s method is slightly modified according to Zdrazilova et al.. Acetylcholinesterase was obtained from electric eel (Electrophorus electricus L.) and butyrylcholinesterase from equine serum.

[4] = system: Mycobacterium tuberculosis My 331/88 (H37Rv); experiment: microbe, parasite or virus in culture; format: cell-based; details: 37 °C
[5] = molecular target: T2, BChE from equine serum (Equus caballus, UniProt P81908); experiment: BChE inhibition, modified Ellman's method; format: biochemical
T2 construct: butyrylcholinesterase from equine serum; from tissue; host or cells: equine serum
T2 sequence (P81908 whole entry): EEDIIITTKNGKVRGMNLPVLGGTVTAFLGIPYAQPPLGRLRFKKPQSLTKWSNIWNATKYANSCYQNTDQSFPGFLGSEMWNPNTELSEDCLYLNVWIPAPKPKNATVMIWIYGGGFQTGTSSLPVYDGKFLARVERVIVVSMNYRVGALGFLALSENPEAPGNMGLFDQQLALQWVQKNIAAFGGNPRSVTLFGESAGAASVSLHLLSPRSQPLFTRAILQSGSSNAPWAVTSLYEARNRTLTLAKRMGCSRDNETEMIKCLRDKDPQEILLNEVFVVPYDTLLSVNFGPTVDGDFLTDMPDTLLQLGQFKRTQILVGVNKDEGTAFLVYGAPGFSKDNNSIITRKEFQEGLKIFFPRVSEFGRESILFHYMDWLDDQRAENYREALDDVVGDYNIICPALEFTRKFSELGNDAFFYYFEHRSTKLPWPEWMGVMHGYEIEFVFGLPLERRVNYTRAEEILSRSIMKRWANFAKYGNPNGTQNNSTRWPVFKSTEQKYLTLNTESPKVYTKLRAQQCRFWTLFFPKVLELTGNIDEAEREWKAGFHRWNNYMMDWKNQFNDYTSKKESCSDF
Source text: as §1, §2

[6] = system: M. avium My 330/88; experiment: microbe, parasite or virus in culture; format: cell-based, Mycobacterium avium; details: for MIC: Mycobacterium avium, 37 °C
[7] = system: nontuberculous mycobacteria (M. avium and M. kansasii); experiment: microbe, parasite or virus in culture; format: cell-based; details: Mycobacterium avium, M. avium and M. kansasii strains; read-out: MIC values against nontuberculous mycobacteria
[8] = MY235/80, 168 h, 7 d, read-out: MIC M. kansasii 235/80 7 d
[9] = MY235/80, 336 h, 14 d, read-out: MIC M. kansasii 235/80 14 d
[10] = MY235/80, 504 h, 21 d, read-out: MIC M. kansasii 235/80 21 d
[11] = 168 h, 7 d, read-out: MIC M. kansasii 6509/96 7 d
[12] = 336 h, 14 d, read-out: MIC M. kansasii 6509/96 14 d
[13] = 504 h, 21 d, read-out: MIC M. kansasii 6509/96 21 d
[14] = 336 h, 14 d, read-out: MIC Mtb 331/88 (H37Rv) 14 d
[15] = 504 h, 21 d, read-out: MIC Mtb 331/88 (H37Rv) 21 d
[16] = MY330/88, 336 h, 14 d, read-out: MIC M. avium 330/88 14 d
[17] = MY330/88, 504 h, 21 d, read-out: MIC M. avium 330/88 21 d

Row | Structure (SMILES) | MIC [1, 8] [µM] | MIC [1, 9] [µM] | MIC [1, 10] [µM] | MIC [2, 11] [µM] | MIC [2, 12] [µM] | MIC [2, 13] [µM] | IC50 [3] [µM] | MIC [4, 14] [µM] | MIC [4, 15] [µM] | IC50 [5] [µM] | MIC [6, 16] [µM] | MIC [6, 17] [µM] | MICs for M. kansasii 235/80 [1] [µM] | MIC [7] [µM] | MIC values against M. avium ([6]; all MIC values (14 and 21 d)) [µM]
1 | CCOP(=S)(OCC)Oc1cc(Cl)ccc1C(=O)Nc1ccc(Cl)c(Cl)c1 [1u, O-{5-Chloro-2-[(3,4-dichlorophenyl)carbamoyl]phenyl} O,O-diethyl phosphorothioate] | 32 (≈ 15 µg/mL) | 32 (≈ 15 µg/mL) | 32 (≈ 15 µg/mL) | 32 (≈ 15 µg/mL) | 62.5 (≈ 29.3 µg/mL) | 62.5 (≈ 29.3 µg/mL) | 9.56 ± 0.21 | 16 (≈ 7.5 µg/mL) | 16 (≈ 7.5 µg/mL) | 14.7 ± 0.2 | > 500 | > 500 |  |  | 
2 | CCOP(=S)(OCC)Oc1cc(Cl)ccc1C(=O)Nc1cccc(Br)c1 [1v, O-{2-[(3-Bromophenyl)carbamoyl]-5-chlorophenyl} O,O-diethyl phosphorothioate] | 32 (≈ 15.3 µg/mL) | 125 (≈ 59.8 µg/mL) | 250 (≈ 120 µg/mL) | 32 (≈ 15.3 µg/mL) | 125 (≈ 59.8 µg/mL) | 250 (≈ 120 µg/mL) | 9.98 ± 0.43 | 32 (≈ 15.3 µg/mL) | 32 (≈ 15.3 µg/mL) | 14.9 ± 1 | 500 (≈ 239 µg/mL) | 500 (≈ 239 µg/mL) |  |  | 
3 | CCOP(=S)(OCC)Oc1cc(Cl)ccc1C(=O)Nc1ccc(Br)cc1 [1w, O-{2-[(4-Bromophenyl)carbamoyl]-5-chlorophenyl} O,O-diethyl phosphorothioate] | 32 (≈ 15.3 µg/mL) | 32 (≈ 15.3 µg/mL) | 32 (≈ 15.3 µg/mL) | 32 (≈ 15.3 µg/mL) | 62.5 (≈ 29.9 µg/mL) | 62.5 (≈ 29.9 µg/mL) | 10.12 ± 0.08 | 32 (≈ 15.3 µg/mL) | 32 (≈ 15.3 µg/mL) | 16.4 ± 0.2 | 250 (≈ 120 µg/mL) | 250 (≈ 120 µg/mL) |  |  | 
4 | CCOP(=S)(OCC)Oc1cc(Cl)ccc1C(=O)Nc1cccc(F)c1 [1x, O-{5-Chloro-2-[(3-fluorophenyl)carbamoyl]phenyl} O,O-diethyl phosphorothioate] | 32 (≈ 13.4 µg/mL) | 125 (≈ 52.2 µg/mL) | 250 (≈ 104 µg/mL) | 32 (≈ 13.4 µg/mL) | 125 (≈ 52.2 µg/mL) | 250 (≈ 104 µg/mL) | 8.04 ± 0.27 | 16 (≈ 6.69 µg/mL) | 32 (≈ 13.4 µg/mL) | 8.68 ± 0.54 | 250 (≈ 104 µg/mL) | 250 (≈ 104 µg/mL) |  |  | 
5 | CCOP(=S)(OCC)Oc1cc(Cl)ccc1C(=O)Nc1ccc(F)cc1 [1y, O-{5-Chloro-2-[(4-fluorophenyl)carbamoyl]phenyl} O,O-diethyl phosphorothioate] | 62.5 (≈ 26.1 µg/mL) | 250 (≈ 104 µg/mL) | 500 (≈ 209 µg/mL) | 62.5 (≈ 26.1 µg/mL) | 250 (≈ 104 µg/mL) | 500 (≈ 209 µg/mL) | 11.6 ± 0.3 | 32 (≈ 13.4 µg/mL) | 32 (≈ 13.4 µg/mL) | 8.67 ± 0.49 | 125 (≈ 52.2 µg/mL) | 250 (≈ 104 µg/mL) |  |  | 
6 | CCOP(=S)(OCC)Oc1cc(Cl)ccc1C(=O)Nc1cccc(C(F)(F)F)c1 [1z, O-(5-Chloro-2-{[3-(trifluoromethyl)phenyl]carbamoyl}phenyl) O,O-diethyl phosphorothioate] | 32 (≈ 15 µg/mL) | 125 (≈ 58.5 µg/mL) | 250 (≈ 117 µg/mL) | 62.5 (≈ 29.2 µg/mL) | 125 (≈ 58.5 µg/mL) | 125 (≈ 58.5 µg/mL) | 11.4 ± 0.3 | 32 (≈ 15 µg/mL) | 62.5 (≈ 29.2 µg/mL) | 15 | 500 (≈ 234 µg/mL) | 500 (≈ 234 µg/mL) | ≤ 250 |  | 
7 | CCOP(=S)(OCC)Oc1cc(Cl)ccc1C(=O)Nc1ccc(C(F)(F)F)cc1 [1zz, O-(5-Chloro-2-{[4-(trifluoromethyl)phenyl]carbamoyl}phenyl) O,O-diethyl phosphorothioate] | 16 (≈ 7.49 µg/mL) | 16 (≈ 7.49 µg/mL) | 16 (≈ 7.49 µg/mL) | 16 (≈ 7.49 µg/mL) | 32 (≈ 15 µg/mL) | 32 (≈ 15 µg/mL) | 9.16 ± 0.17 | 8 (≈ 3.74 µg/mL) | 16 (≈ 7.49 µg/mL) | 18.3 ± 1 | 62.5 (≈ 29.2 µg/mL) | 62.5 (≈ 29.2 µg/mL) | ≤ 250 | ≥ 16 | ≤ 250
